Earlier results on 3 compounds are cited in patent US8496914B2, “Antibacterial oral rinse formulation for preventing coronary artery disease” (priority 2005, dated 2013).

Structures are written as SMILES.

Data set [1] deals with Staphylococcus aureus, Staphylococcus epidermidis and Propionibacterium acnes. Conditions: Raman et al. 1995.
Another data set relates to Staphylococcus aureus. The conditions noted are these: Williams et al. 1997.

`CC1=CCC2CC1C2(C)C` (stereo not drawn) [alpha-pinene]: the “inhibition of three bacterial strains” value in data set [1] is reported as “inhibit”.
As to `CC1=CCC(C(C)(C)O)CC1` (stereo not drawn) [alpha-terpineol], in data set [1], the “inhibition of three bacterial strains” value is “inhibit”.
For the compound `CC1=CCC(O)(C(C)C)CC1` (stereo not shown) [terpinen-4-ol], the “activity against Staphylococcus aureus” value in the data set on Staphylococcus aureus is reported as “equally effective”. Besides, the “inhibition of three bacterial strains” value in data set [1] was “inhibit”.
